Test [1] addresses D(1A) dopamine receptor (Homo sapiens, UniProt P21728).
Test [2] addresses Estrogen receptor beta (Homo sapiens, UniProt Q92731).
Test [3] deals with Voltage-dependent N-type calcium channel subunit alpha-1B (Rattus norvegicus, UniProt Q02294). The test is classed as functional.
The target in test [4] is T1, D(4) dopamine receptor (Homo sapiens, UniProt P21917).
T1 sequence (P21917 whole entry): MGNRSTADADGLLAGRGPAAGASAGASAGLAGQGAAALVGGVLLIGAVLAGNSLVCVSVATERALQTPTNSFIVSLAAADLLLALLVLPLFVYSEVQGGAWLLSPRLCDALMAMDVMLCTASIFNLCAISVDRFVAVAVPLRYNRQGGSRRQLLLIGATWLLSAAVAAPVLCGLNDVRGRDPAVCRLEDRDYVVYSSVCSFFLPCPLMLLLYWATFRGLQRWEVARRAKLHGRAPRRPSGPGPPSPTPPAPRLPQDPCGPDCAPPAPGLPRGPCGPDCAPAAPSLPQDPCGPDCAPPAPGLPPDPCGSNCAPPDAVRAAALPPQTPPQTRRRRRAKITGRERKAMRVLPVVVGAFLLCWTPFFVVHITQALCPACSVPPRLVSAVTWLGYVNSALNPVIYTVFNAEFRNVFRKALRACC

The target in test [5] is Beta-3 adrenergic receptor (Homo sapiens, UniProt P13945).
In test [6] the target is T2, Androgen receptor (Rattus norvegicus, UniProt P15207).
T2 sequence (P15207 whole entry): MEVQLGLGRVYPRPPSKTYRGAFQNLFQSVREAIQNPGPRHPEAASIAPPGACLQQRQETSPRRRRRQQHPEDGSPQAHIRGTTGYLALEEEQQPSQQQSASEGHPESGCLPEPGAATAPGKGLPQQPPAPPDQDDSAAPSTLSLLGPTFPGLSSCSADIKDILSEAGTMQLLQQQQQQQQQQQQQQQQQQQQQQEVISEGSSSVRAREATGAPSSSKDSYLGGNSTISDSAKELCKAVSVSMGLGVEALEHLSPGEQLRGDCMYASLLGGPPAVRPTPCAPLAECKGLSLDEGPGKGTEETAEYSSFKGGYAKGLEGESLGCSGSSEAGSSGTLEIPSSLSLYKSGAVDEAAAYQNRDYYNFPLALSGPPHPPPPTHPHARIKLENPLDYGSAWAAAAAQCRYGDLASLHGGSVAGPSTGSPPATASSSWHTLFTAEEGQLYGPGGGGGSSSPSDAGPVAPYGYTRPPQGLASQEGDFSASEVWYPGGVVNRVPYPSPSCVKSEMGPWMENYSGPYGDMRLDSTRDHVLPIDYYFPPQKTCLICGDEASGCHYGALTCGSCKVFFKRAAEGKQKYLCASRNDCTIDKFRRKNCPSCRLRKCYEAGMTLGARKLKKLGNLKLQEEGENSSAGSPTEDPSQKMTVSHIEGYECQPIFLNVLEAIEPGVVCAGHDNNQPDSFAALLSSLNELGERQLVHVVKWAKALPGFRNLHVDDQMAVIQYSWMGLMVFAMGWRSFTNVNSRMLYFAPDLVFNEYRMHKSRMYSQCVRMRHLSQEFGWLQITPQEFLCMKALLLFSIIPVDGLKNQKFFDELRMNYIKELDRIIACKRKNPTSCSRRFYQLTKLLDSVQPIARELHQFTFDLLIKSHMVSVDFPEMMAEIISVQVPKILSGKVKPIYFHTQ

The target of test [7] is Histamine H1 receptor (Homo sapiens, UniProt P35367). The test is classed as functional, cell-based.
The target in test [8] is T3, Muscarinic acetylcholine receptor M2 (Homo sapiens, UniProt P08172).
T3 sequence (P08172 whole entry): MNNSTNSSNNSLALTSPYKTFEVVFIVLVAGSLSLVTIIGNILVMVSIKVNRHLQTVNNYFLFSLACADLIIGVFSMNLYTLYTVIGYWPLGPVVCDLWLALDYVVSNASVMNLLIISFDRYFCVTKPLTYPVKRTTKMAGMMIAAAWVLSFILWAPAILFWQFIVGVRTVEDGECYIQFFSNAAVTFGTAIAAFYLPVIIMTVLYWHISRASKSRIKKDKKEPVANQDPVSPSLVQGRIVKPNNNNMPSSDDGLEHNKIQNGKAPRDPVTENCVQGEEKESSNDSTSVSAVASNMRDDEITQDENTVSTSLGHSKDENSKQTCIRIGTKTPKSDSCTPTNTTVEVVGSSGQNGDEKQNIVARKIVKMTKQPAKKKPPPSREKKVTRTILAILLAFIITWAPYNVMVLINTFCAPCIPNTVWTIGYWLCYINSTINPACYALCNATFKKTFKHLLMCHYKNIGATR

Test [9] concerns the target T4, Adenosine receptor A1 (Homo sapiens, UniProt P30542).
T4 sequence (P30542 whole entry): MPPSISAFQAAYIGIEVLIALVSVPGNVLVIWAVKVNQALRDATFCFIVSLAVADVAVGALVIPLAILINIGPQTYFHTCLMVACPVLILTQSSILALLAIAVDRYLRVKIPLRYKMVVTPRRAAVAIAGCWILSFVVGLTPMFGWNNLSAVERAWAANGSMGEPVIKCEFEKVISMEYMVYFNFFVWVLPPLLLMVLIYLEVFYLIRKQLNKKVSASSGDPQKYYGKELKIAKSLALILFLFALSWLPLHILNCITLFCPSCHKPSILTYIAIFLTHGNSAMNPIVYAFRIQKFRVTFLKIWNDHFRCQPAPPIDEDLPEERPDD

Test [10] deals with T5, Peroxisome proliferator-activated receptor gamma (Homo sapiens, UniProt P37231).
T5 sequence (P37231 whole entry): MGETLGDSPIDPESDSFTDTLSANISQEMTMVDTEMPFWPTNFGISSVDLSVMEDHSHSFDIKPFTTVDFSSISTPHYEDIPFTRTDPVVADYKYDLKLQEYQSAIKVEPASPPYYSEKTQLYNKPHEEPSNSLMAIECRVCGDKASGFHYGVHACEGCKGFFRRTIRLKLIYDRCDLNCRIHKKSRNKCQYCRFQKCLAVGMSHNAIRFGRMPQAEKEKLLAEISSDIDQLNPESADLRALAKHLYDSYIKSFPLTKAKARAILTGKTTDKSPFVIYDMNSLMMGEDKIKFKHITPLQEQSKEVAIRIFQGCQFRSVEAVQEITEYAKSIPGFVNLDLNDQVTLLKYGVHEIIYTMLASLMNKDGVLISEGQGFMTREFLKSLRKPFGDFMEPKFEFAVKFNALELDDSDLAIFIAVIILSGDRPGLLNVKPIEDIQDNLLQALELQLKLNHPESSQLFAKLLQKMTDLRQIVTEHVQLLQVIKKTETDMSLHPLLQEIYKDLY
In kind it is functional.

The target of test [11] is T5, Peroxisome proliferator-activated receptor gamma. In kind it is functional. This is another data set of the same source.

Structures are written as SMILES. Some results are limits rather than exact numbers.
Also: assay procedure not described here.

Chain of Beta-3 adrenergic receptor (P13945 whole entry): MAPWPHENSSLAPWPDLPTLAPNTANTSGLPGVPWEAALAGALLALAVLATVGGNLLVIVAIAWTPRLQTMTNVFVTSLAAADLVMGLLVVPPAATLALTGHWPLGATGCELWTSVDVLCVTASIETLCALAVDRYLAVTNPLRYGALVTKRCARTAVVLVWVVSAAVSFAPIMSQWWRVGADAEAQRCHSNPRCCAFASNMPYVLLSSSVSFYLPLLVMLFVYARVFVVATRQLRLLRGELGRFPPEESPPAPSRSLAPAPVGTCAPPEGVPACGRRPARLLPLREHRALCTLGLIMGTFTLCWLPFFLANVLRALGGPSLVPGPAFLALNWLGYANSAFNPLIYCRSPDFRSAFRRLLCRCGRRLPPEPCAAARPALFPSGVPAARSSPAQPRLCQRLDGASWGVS
Chain of Histamine H1 receptor (P35367 whole entry): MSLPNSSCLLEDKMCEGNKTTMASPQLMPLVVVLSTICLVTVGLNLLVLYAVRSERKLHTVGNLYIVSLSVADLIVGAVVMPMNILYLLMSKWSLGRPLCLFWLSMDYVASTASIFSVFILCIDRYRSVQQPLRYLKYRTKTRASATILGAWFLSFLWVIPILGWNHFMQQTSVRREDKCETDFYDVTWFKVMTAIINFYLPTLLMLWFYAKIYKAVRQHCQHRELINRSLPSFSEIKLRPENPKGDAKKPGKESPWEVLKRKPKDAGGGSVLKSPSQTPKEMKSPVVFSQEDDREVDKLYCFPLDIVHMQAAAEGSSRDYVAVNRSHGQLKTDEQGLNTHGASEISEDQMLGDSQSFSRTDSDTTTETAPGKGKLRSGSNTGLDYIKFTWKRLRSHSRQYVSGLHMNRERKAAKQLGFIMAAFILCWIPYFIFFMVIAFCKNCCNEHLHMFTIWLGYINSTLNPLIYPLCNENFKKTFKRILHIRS
Chain of D(1A) dopamine receptor (P21728 whole entry): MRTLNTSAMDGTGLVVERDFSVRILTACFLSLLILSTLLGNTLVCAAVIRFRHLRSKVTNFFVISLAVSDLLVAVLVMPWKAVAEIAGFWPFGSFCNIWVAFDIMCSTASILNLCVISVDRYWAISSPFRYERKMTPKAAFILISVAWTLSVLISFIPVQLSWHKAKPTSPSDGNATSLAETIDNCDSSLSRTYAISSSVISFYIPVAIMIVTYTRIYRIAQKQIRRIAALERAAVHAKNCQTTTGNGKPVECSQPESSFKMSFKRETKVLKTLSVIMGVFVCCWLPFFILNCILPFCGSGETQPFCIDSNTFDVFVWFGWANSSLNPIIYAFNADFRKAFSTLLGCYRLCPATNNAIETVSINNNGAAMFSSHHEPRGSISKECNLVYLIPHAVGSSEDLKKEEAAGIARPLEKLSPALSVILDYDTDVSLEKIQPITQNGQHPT
Chain of Estrogen receptor beta (Q92731 whole entry): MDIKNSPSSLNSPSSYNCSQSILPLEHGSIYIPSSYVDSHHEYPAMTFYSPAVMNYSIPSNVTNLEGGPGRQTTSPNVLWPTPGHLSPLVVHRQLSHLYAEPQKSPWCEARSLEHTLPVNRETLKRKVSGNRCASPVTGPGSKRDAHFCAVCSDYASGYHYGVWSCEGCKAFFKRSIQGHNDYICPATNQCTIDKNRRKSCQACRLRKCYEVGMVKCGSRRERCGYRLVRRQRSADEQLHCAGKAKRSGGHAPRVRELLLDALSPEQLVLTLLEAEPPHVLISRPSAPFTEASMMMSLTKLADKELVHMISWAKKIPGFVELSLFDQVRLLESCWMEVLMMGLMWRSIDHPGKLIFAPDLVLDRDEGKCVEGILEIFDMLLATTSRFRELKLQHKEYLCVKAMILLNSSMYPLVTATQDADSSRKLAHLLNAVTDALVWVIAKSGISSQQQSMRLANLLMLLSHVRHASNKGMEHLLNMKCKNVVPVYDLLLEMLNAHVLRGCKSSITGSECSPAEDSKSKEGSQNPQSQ
Chain of Voltage-dependent N-type calcium channel subunit alpha-1B (Q02294 whole entry): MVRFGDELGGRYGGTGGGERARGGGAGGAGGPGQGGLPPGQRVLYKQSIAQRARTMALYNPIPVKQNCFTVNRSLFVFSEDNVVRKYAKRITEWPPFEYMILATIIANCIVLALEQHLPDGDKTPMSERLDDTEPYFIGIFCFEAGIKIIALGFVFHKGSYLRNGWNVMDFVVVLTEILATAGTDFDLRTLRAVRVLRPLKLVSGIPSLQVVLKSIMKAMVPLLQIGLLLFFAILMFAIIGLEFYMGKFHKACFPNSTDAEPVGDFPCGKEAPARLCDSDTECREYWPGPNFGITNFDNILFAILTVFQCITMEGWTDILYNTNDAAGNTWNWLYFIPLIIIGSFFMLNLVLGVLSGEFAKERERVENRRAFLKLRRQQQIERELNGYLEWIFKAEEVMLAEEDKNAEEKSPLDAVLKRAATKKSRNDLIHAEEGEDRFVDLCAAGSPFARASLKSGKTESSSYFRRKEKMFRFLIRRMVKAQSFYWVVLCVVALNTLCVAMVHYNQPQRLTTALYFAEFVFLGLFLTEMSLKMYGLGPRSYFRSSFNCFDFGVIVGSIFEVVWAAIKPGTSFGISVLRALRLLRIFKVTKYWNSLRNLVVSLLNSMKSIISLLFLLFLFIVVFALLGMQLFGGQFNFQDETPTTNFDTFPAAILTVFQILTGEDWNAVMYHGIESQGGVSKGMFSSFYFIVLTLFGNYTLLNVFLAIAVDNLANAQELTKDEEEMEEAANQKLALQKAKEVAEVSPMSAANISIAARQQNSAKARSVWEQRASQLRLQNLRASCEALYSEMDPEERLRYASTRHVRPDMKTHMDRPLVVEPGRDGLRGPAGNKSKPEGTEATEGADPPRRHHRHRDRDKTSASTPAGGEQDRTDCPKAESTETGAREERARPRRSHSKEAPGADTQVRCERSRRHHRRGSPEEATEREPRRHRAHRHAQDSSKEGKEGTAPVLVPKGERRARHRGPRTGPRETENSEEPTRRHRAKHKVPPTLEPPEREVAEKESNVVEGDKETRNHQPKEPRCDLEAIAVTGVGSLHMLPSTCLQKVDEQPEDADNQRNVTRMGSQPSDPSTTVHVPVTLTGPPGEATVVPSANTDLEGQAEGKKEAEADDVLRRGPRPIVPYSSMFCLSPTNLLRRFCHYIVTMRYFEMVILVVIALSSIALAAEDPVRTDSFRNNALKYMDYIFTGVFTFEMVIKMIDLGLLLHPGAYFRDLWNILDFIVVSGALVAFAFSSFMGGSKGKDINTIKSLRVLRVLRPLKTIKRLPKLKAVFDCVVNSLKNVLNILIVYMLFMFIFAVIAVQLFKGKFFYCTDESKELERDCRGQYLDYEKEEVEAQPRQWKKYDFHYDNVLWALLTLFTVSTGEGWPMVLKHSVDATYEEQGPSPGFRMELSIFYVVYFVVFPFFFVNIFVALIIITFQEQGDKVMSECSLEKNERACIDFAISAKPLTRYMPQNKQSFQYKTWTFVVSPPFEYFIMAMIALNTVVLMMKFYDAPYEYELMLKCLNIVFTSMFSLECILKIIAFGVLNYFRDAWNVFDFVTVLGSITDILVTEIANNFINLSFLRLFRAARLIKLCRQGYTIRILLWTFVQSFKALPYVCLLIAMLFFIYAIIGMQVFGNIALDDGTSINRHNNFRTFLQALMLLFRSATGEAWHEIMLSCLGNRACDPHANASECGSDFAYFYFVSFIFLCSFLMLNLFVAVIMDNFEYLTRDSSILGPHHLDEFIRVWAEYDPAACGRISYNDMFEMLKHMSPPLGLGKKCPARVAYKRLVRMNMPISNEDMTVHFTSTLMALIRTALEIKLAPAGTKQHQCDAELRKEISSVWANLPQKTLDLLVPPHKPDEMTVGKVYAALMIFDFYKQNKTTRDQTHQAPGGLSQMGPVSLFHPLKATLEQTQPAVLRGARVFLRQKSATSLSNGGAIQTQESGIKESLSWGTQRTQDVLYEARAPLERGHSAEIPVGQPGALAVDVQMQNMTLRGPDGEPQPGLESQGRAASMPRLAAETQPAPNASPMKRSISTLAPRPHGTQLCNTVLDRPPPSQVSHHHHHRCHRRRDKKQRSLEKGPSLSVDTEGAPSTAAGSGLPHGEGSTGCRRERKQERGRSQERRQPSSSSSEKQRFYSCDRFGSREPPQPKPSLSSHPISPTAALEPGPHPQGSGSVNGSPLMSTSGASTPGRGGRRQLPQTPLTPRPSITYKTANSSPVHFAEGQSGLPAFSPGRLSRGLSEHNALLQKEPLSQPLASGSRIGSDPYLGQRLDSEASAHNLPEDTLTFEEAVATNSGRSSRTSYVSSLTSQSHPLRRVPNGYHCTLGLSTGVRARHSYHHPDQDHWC

With `CN1CCN(C2=Nc3ccccc3Oc3ccc(Cl)cc32)CC1` [LOXAPINE], the AC50 in [1] is 0.102 µM; in test [2], above 30 µM; in test [3], above 10 µM; in test [4], 0.0144 µM; in [5], above 30 µM.
As for `CNCc1ccc(-c2[nH]c3cc(F)cc4c3c2CCNC4=O)cc1` [RUCAPARIB], in test [6], the AC50 is above 30 µM.
With `CC12CC3CC(C)(C1)CC(N)(C3)C2` [MEMANTINE], the AC50 was above 30 µM in test [7], above 30 µM in [2], above 10 µM in [3] and 20.1 µM in [5].
`CN1CCC(=C2c3ccccc3CCc3cccnc32)CC1` [AZATADINE]: the AC50 in test [7] is above 30 µM; in test [8], 0.064 µM.
As for `O=[N+]([O-])c1ccc(O)c2ncccc12` [NITROXOLINE], the AC50 in test [9] is above 30 µM.
Consider `C[C@H](Cc1ccc(O)c(O)c1)[C@@H](C)Cc1ccc(O)c(O)c1` [MASOPROCOL], for which the AC50 in test [7] is above 30 µM; in [10] it was above 30 µM; in test [11], 0.4 µM.
`C=C1CC[C@H](O)C/C1=C/C=C1\CCC[C@]2(C)[C@@H]([C@H](C)/C=C/[C@H](C)C(C)C)CC[C@@H]12` [ERGOCALCIFEROL] had an AC50 in [9] above 30 µM.
Same read-out and setting: the result for `CC[C@@H]([C@H](C)O)n1ncn(-c2ccc(N3CCN(c4ccc(OC[C@@H]5CO[C@@](Cn6cncn6)(c6ccc(F)cc6F)C5)cc4)CC3)cc2)c1=O` [POSACONAZOLE] reads above 30 µM.
For `CCOC(=O)C1=C(C)NC(C)=C(C(=O)OC)C1c1cccc([N+](=O)[O-])c1` (configuration not stated) [NITRENDIPINE], the half-maximal activity concentration (AC50) was above 10 µM in test [1]; above 30 µM in [2]; above 10 µM in test [3]; above 10 µM in [8]; 15.1 µM in [5].
`[H]/N=C(/N)N/C(=N/[H])NCCc1ccccc1` [PHENFORMIN]: the AC50 was above 10 µM in test [1]; above 30 µM in test [2]; above 10 µM in test [3]; above 10 µM in [8]; above 30 µM in [5].
On to `CCC(=O)O[C@H]1CC[C@H]2[C@@H]3CCC4=CC(=O)CC[C@]4(C)[C@H]3CC[C@]12C` [TESTOSTERONE PROPIONATE], for which the AC50 in [6] turned out to be 1.7 µM.
Regarding `O=C(O)c1cn(C2CC2)c2cc(N3CCNCC3)c(F)cc2c1=O` [CIPROFLOXACIN], the AC50 in test [9] and in test [2] was above 30 µM throughout.
For `Oc1ccc2c(c1)CC[C@H](c1ccccc1)[C@@H]2c1ccc(OCCN2CCCC2)cc1` [LASOFOXIFENE], the AC50 in test [10] is above 30 µM; in [11], 18 µM.
As for `CC(N)C(O)c1ccccc1` (configuration not stated) [PHENYLPROPANOLAMINE], the AC50 in [1] is above 10 µM; in test [3] it was above 10 µM; in test [4] it was above 10 µM; in [8], above 10 µM; in test [5] it was above 30 µM.
Consider `C[C@]12CC[C@@H]3c4ccc(O)cc4C[C@@H](CCCCCCCCC[S+]([O-])CCCC(F)(F)C(F)(F)F)[C@H]3[C@@H]1CC[C@@H]2O` (some centres not stated) [FULVESTRANT], for which the AC50 in [7] is above 30 µM; in [10] it was above 30 µM; in [11] it was 14 µM.
In test [9], `CCN(CC)C(=S)S` [DITIOCARB] returned an AC50 above 30 µM.
Turning to `CC(C)NCC(O)c1ccc(O)c(O)c1` (configuration not stated) [ISOPROTERENOL], the AC50 in test [1] was above 10 µM; in [2], above 30 µM; in [3] it was above 10 µM; in test [4], above 10 µM; in [8] it was above 10 µM.
Regarding `CC(=O)N[C@@H](CS)C(=O)O` [ACETYLCYSTEINE], the AC50 in test [7] is above 30 µM.
For the molecule `CCC(C)C1(CC)C(=O)NC(=O)NC1=O` (configuration not stated) [BUTABARBITAL], the AC50 in test [10] and in test [11] was above 30 µM throughout.
In the case of `C/N=C(\NC)NCc1ccccc1` [BETHANIDINE], the AC50 in [10] and in test [11] was above 30 µM throughout.
On to `CC1OC2(CS1)CN1CCC2CC1` (configuration not stated) [CEVIMELINE], for which the AC50 in test [6] is above 10 µM.
The same measure, in the same setting: the result for `CNC1=Nc2ccc(Cl)cc2C(c2ccccc2)=[N+]([O-])C1` [CHLORDIAZEPOXIDE] reads above 30 µM.
In the case of `CCC(=O)O[C@]1(C(=O)SCF)[C@H](C)C[C@H]2[C@@H]3C[C@H](F)C4=CC(=O)C=C[C@]4(C)[C@@]3(F)[C@@H](O)C[C@@]21C` [FLUTICASONE PROPIONATE], the half-maximal activity concentration (AC50) is above 10 µM in test [1]; above 10 µM in test [3]; above 10 µM in test [4]; above 10 µM in test [8]; above 30 µM in [5].
For `CC(=O)O[C@]1(C(C)=O)CC[C@H]2[C@@H]3C=C(Cl)C4=CC(=O)CC[C@]4(C)[C@H]3CC[C@@]21C` [CHLORMADINONE ACETATE], in [9], the AC50 was above 30 µM.
For the molecule `Cc1cnc(C(=O)NCCc2ccc(S(=O)(=O)NC(=O)NC3CCCCC3)cc2)cn1` [GLIPIZIDE], the AC50 was above 30 µM in [9]; above 30 µM in test [2]; above 10 µM in test [3]; above 10 µM in [4]; above 30 µM in [5].
`CCOC(=O)[C@H](CCc1ccccc1)N[C@@H](C)C(=O)N(CC(=O)O)C1Cc2ccccc2C1` returned an AC50 in test [9] above 30 µM.
With `CC(CCc1ccc(O)cc1)NCCc1ccc(O)c(O)c1` (configuration not stated) [DOBUTAMINE], the AC50 was above 10 µM in test [1]; above 30 µM in test [2]; above 10 µM in test [3]; 2.42 µM in test [4]; above 10 µM in [8]; above 30 µM in test [5].
In the case of `CC(C)COCC(CN(Cc1ccccc1)c1ccccc1)N1CCCC1` (configuration not stated) [BEPRIDIL], the AC50 in test [10] is above 30 µM; in [2], above 30 µM; in test [11], above 30 µM; in test [5] it was 11.9 µM.
In the case of `CCC(C)C(CC)C(N)=O` (configuration not stated) [VALNOCTAMIDE], the concentration at half-maximal activity (AC50) in test [7] is above 30 µM.

The record behind these values is ChEMBL document CHEMBL5291721, “A preclinical secondary pharmacology resource illuminates target-adverse drug reaction associations of marketed drugs” (Nat Commun, 2023).
